Marks after values point to notes of the source that are not given here.
Legend:
[1] = tested on: collagen and epinephrine-induced pulmonary thrombosis; test: Acute pulmonary thrombosis induced by collagen and epinephrine; format: in vivo, mouse; details: for Mortality %: then collagen + epinephrine, mice; for Scored thrombus formation (Thrombi), lung: graded as thrombi per 25 mm^2 lung field
Protocol: Mice were separated into several groups after being fasted overnight (10 animals each). CSL was dissolved in DMSO and given intravenously to each mouse. After 1 h, the animals received an injection of collagen and epinephrine mixture (500 μg/kg each) to induce acute thrombosis. Each mouse was closely observed for 15 min to see if it had recovered from the acute thrombosis challenge, had been paralyzed, or had passed away. H&E-stained lung tissue slices from five mice were randomly selected for the histologic investigation to determine the extent of pulmonary thrombus development. The number of arteries greater than 20 μm in diameter with any detectable thrombus was counted in each of the five view fields randomly selected from the left lobe in each section (one section per mouse). Twenty-five fields for each group were compared as a result. A total of 60–80 vessels in each segment were imaged using the system (Leica, Germany). The results were graded as the number of thrombi per 25 mm^2 lung field as previously described.

platelets = test: P-selectin and PAC-1 expression, flow cytometry; format: cell-based, human; details: platelets activated by ADP or U46619; CSL 10 or 20 μM
Protocol: Figure 7 Effects of CSL on the expression of P-selectin and PAC-1 and the production of NO and ET-1. (A) Rinsed platelets were incubated with DMSO or CSL (10 or 20 μM) for 3 min at 37 °C, and stimulation of ADP ((A,C) 10 μM) or U46619 ((B,D) 6 μM) was given for 6 min. The expressions of P-selectin and PAC-1 (A,B) and the production of NO and ET-1 (C,D) were measured as described in the Methods section. Data are shown as mean values ± SD of five independent experiments. * p < 0.05 vs. (A,C) ADP or (B,D) U46619 alone. D = 0.2% DMSO, used as the vehicle control.
PAC-1 and P-selectin expression levels were assessed by modifying accepted techniques. Briefly, 20 μL of DMSO or CSL (10 to 20 μM) were incubated with 0.5 mL of cleaned platelets (2 × 10^8 platelets/mL) for 3 min. The platelet suspension was refrigerated at 4 °C after stimulation with ADP (10 μM) or U46619 (6 μM) for 6 min at 37 °C. Subsequently, 50 μL of the sample was mixed with activation-specific anti-PAC-1 and anti-CD61-PE in saturated concentrations, and the mixture was then incubated for 25 min in the dark to determine the expression of PAC-1. […] Finally, 5000 events were evaluated for each sample. The mean fluorescence intensities from each channel were expressed using BD Accuri C6 software (BD Biosciences, San Diego, CA, USA). […]

[2] = tested on: platelet-poor plasma (PPP); test: Prothrombin time (PT) after administration to mice; format: in vivo, mouse; details: administered to mice; data not shown
Protocol: (§1) First, the potential cytotoxicity of […] on HUVECs was assessed using the 3-(4,5-dimethylthiazol-2-yl)-2,5-diphenyltetrazolium bromide (MTT) assay. […] The activated partial thromboplastin time (aPTT) and prothrombin time (PT), two coagulation parameters altered by CSL in vitro, were assessed first. We used the direct FXa inhibitor rivaroxaban as a positive control for our experiments. […] In the aPTT experiments, rivaroxaban at 8.38 μM and CSL at 7.23 μM, respectively, doubled the clotting time. Each mouse group (n = 5) received intravenous injections of CSL for 4 consecutive days to validate the in vitro results in an ex vivo experiment. […] In the ex vivo aPTT assays, treatment with CSL at 0.25 mg/kg and rivaroxaban at 0.29 mg/kg, respectively, doubled the clotting time. The average blood volume was determined to be 2 mL based on an estimated circulating blood volume for mice of 72 mL/kg and an average weight of 27 g for each animal used in this investigation. As a result, the estimated concentration of CSL in the peripheral blood after each injection ([…]) was 2.5, 5, 10, or 20 μM, respectively.
(§2) Plasma was taken by centrifuging blood (2000× g for 10 min) at room temperature following dimethyl sulfoxide (DMSO) or CSL administration for 1 h to assess PT and aPTT using a thrombotimer (Behnk Elektronik, Norderstedt, Germany). […] Next, the clotting time was measured.

[3] = tested on: platelet-poor plasma (PPP); test: Ex vivo aPTT clotting time after intravenous injection; format: in vivo, mouse; details: mice
Protocol: as §1
Figure 2 Effects of CSL on clotting time. (A) Platelet-poor plasma (PPP) was incubated with the indicated concentrations of CSL or rivaroxaban (Riva) for 15 min. (B) One hour after administering DMSO, CSL, or Riva, blood was collected from the mice, and PPP was obtained. Then, in vitro aPTT (A) or ex vivo aPTT was measured, as described in the Methods sections. Data are shown as mean values ± SD of five independent experiments. * p < 0.05 vs. D. D = 0.2% DMSO, used as the vehicle control.
Male C57BL/6 mice aged 7 weeks (mean weight: 27 g) were purchased from Orient Bio Co., in Sungnam, Republic of Korea, and were subjected to a 12-day acclimatization phase. […]
as §2

## COc1cc(-c2cc(=O)c3c(O)c(OC)c(OC)cc3o2)ccc1O [CSL, 4,5-dihydroxy-3,6,7-trimethoxyflavone]
[1]; 0.13 mg/kg intravenous
  Mortality %: 85 ^# %
  Scored thrombus formation (Thrombi), lung: 3.5 ± 0.1
[1]; 0.26 mg/kg intravenous
  Mortality %: 80 ^# %
  Scored thrombus formation (Thrombi), lung: 2.5 ± 0.1
[1]; 0.51 mg/kg intravenous
  Mortality %: 60 ^# %
  Scored thrombus formation (Thrombi), lung: 1.8 ± 0.2
platelets
  expression of P-selectin and PAC-1: reduced the expression
[2]
  PT: did not change
[3]; intravenous
  dose that doubled the clotting time (ex vivo aPTT): 0.25 mg/kg
[3]; intravenous injections for 4 consecutive days
  blood clotting time ex vivo (aPTT): dramatically increased blood clotting time
